Measurements reported in the NIST ThermoML archive (doi:10.1021/je300568h).
Numbers after ± are expanded uncertainties.

Conditions: Liquid, Ebulliometric method (Recirculating still)

vapor or sublimation pressure (420.2 K)	vapor or sublimation pressure (436.7 K)	vapor or sublimation pressure (448.2 K)	vapor or sublimation pressure (457.9 K)	vapor or sublimation pressure (330.9 K)	vapor or sublimation pressure (345 K)	vapor or sublimation pressure (355.1 K)	vapor or sublimation pressure (363.2 K)	vapor or sublimation pressure (366.7 K)	Compound
29.84 ± 0.74 kPa	49.84 ± 0.89 kPa	69.83 ± 1.2 kPa	89.83 ± 1.3 kPa	–	–	–	–	–	CCCCCCCCN(C)C [N,N-dimethyl-1-octanamine]
–	–	–	–	29.84 ± 0.86 kPa	49.84 ± 0.99 kPa	69.83 ± 1.3 kPa	89.83 ± 1.6 kPa	99.83 ± 1.7 kPa	CCCCN(C)C [N,N-dimethylbutanamine]
